Data taken from EP0117797A1, “Nitroso ureas, process for their preparation and their therapeutic use” (CENTRE NATIONAL DE LA RECHERCHE SCIENTIFIQUE, priority 1983, dated 1984).

Legend:
[1] = system: cellules de leucémie L 1210; assay: Oncostatic activity against L 1210 leukaemia (i.p.) in mice, survival T/C; type: in vivo, souris F1, (DBA/2XC57 B 1/6); settings: for Dose optimale / T/C max / M.E.D.I. / efficacité (comparison in words): L 1210 i.p.; for T/C max: treated days 1, 5 and 9, suspension in oil, T/C = ∞ when 50 % of the animals are cured, T/C > 125 % = active; for M.E.D.I.: dose plateau of maximum activity corresponding to T/C = ∞; for I = DL50 / D.Opt.: therapeutic index, DL50 divided by optimal dose; for efficacité (comparison in words): 2-chloro-éthylamides compared with the known -NH2 amides (N° 10, 14 et 16)
Source text: L'activité oncostatique de certains composés de l'invention par comparaison à d'autres nitrosourées connues a été déterminée en suivant le protocole expérimental suivant : • Des souris F1, (DBA/2XC57 B 1/6) sont inoculées avec 10^5 cellules de leucémie L 1210 par voie intrapéritonéale au jour 0 et divisées en 5 groupes. Le premier est le groupe de contrôle et les quatre autres sont traités avec les produits à tester à différentes concentrations, aux jours 1,5 et 9. Les composés sont injectés en suspension dans l'huile. La mortalité des animaux est observée et l'autopsie indique si elle est due à la leucémie ou à l'action toxique de la drogue. Les résultats, pour chaque dose de produit, sont exprimés en T/C (%) (T représente la médiane de survie du groupe traité et C la médiane de survie du groupe témoin T/C = ∞ quand 50 % des animaux sont guéris. T/C > 125 % signifie qu'une drogue est active.
Ces essais ont été effectués à l'aide de composés de formule [formula] pour différents amino-acides et différentes significations du substituant X (substituant côté C terminal).
Les significations de X sont les suivantes : • 1) Composés de l'invention : X = -NH-CH2-CH2Cl, -N(CH2-CH2-Cl)2 et -NH-C6H4-N(CH2-CH2-Cl)2 • 2) Composés en dehors de l'invention : X = -NH2 et -NH-C^H3.
Le tableau précédent rapporte les valeurs DL50, T/C, M.E.D.I. (Maximum efficace dose internal = plateau d'activité maximum correspondant à T/C = ∞), dose optimale et Indice thérapeutique.

Acute toxicity (DL50) = settings: mouse, in vivo

Structure (SMILES) | Dose optimale [1] [mg/kg] | T/C max [1] | M.E.D.I. [1] [mg/kg] | I = DL50 / D.Opt. [1] | LD50 (Acute toxicity (DL50)) [mg/kg] | DL50 (Acute toxicity (DL50)) [mg/kg] | efficacité (comparison in words) [1]
C[C@H](NC(=O)N(CCCl)N=O)C(=O)NCCCl [compound 1] | 20 | ∞ | 10 to 30 | 1,75 | 35 |  | 
O=NN(CCCl)C(=O)NCCC(=O)NCCCl [compound 2] | 35 | ∞ | 20 to 50 | 2,86 |  | 100 | 
O=NN(CCCl)C(=O)N[C@@H](CC(=O)NCCCl)C(=O)NCCCl [compound 3] | 37 | ∞ | 25 to 50 | 3,50 | 130 |  | 
O=NN(CCCl)C(=O)NCCCC(=O)NCCCl [compound 7] | 35 | ∞ | 20 to 50 | 3,57 |  | 125 | 
CC(C)C[C@H](NC(=O)N(CCCl)N=O)C(=O)NCCCl [compound 9] | 35 | ∞ | 15 to 50 | 1,80 | 64 |  | beaucoup plus efficaces
O=NN(CCCl)C(=O)NCCCC[C@H](NC(=O)N(CCCl)N=O)C(=O)NCCCl [compound 12] | 30 | ∞ | 20 to 40 | 4,50 | 135 |  | 
CSCC[C@H](NC(=O)N(CCCl)N=O)C(=O)NCCCl [compound 13] | 20 | ∞ | 10 to 30 | 1,60 | 32 |  | beaucoup plus efficaces
